# Laboratory results as given in US8497385B2, “Bryostatin analogues, synthetic methods and uses” (The Board of Trustees of the Leland Stanford Junior …, priority 2007, dated 2013).
# Like-named read-outs stand apart in the source and are kept apart here.
# Experiments:
# [1] = biological target: rat brain PKC isozyme mixture; experiment: Protein Kinase C (Isozyme Mix) Assay; assay type: binding; conditions: for Ki: rat brain PKC isozyme mixture, read-out: Binding Affinity
# PKCδ-C1B = PKCδ-C1B (Homo sapiens (Human), UniProt Q05655); experiment: PKCδ-C1B Assay; assay type: binding
# P388 cell line = experiment: P388 Murine Lymphocytic Leukemia Cell Assay; assay type: cell-based; conditions: 5 days incubation, MTT
# Protocol: Cells from a P388 cell line (CellGate, Inc., Sunnyvale, Calif.) are grown in RPMI 1640 cell medium containing fetal calf serum (10%), L-glutamine, penicillin, streptomycin and are split twice weekly. All compounds are first diluted with DMSO. Later serial dilutions are done with a phosphate buffer solution (HYQ DPBS modified phosphate buffered saline). All dilutions are done in glass vials and the final DMSO concentration is always below 0.5% by volume. Final two-fold dilutions are done in a 96 well plate using cell media so that each well contains 50 μL. All compounds are assayed in quadruplicate over 12 concentrations. Cell concentration is measured using a hemacytometer and the final cell concentration is adjusted to 1×10^4 cells/mL with cell medium. The resulting solution of cells (50 μL) is then added to each well and the plates are incubated for 5 days in a 37° C., 5% CO2, humidified incubator (Sanyo CO2 incubator). MTT solution (3-[4,5-dimethylthiazol-2-yl]-2,5-diphenyltetrazolium bromide, 10 μL) is then added to each well and the plates are re-incubated under identical conditions for 2 h. To each well is then added acidified isopropanol (150 μL of i-PrOH solution containing 0.05 N HCl) and mixed thoroughly. The plates are then scanned at 595 nm and the absorbances are read (Wallac Victor 1420 Multilabel Counter). The resulting data is then analyzed to determine an ED50 value using the Prism software package (GraphPad).
# Chain of PKCδ-C1B (Q05655 whole entry, looked up): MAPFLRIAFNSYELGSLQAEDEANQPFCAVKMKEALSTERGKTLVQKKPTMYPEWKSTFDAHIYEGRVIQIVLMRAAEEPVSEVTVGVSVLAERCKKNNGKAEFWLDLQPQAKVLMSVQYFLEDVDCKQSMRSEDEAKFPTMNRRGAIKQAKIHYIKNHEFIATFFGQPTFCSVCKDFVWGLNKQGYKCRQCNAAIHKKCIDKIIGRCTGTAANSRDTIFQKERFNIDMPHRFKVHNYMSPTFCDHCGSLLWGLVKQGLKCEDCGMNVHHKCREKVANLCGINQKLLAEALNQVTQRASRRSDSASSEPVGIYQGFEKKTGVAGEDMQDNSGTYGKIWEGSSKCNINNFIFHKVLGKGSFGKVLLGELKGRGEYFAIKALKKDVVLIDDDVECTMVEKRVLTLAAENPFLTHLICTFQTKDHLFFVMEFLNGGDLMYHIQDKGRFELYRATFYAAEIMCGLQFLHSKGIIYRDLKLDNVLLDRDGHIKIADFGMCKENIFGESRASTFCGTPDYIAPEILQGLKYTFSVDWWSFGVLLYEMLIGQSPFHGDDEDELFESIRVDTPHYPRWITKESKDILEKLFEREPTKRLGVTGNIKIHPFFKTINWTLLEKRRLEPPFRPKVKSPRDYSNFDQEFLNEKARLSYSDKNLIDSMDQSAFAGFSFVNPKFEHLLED
Compound,Ki [1] [nM],other results
CCCCCCCC(=O)O[C@H]1/C(=C/C(=O)OC)C[C@H]2C[C@H](CO)OC(=O)C[C@H](O)CCO[C@H](c3ccc(Br)cc3)C[C@@H]3CCO[C@H](/C=C/C(C)(C)[C@]1(O)O2)O3 [Formula 18C],1.6,
CCCCCCCC(=O)O[C@H]1/C(=C/C(=O)OC)C[C@H]2C[C@H](CO)OC(=O)C[C@H](O)CCO[C@H](c3ccccc3)C[C@@H]3CCO[C@H](/C=C/C(C)(C)[C@]1(O)O2)O3 [Formula 19B.0],2.3,
CCCCCCCC(=O)O[C@H]1/C(=C/C(=O)OC)C[C@H]2C[C@H](CO)OC(=O)C[C@H](O)CCO[C@H](c3ccc(-c4ccccc4)cc3)C[C@@H]3CCO[C@H](/C=C/C(C)(C)[C@]1(O)O2)O3 [Formula 19B.1],3.1,
CCCCCCCC(=O)O[C@H]1/C(=C/C(=O)OC)C[C@H]2C[C@H](CO)OC(=O)C[C@H](O)CCO[C@H](c3ccc(CCCOCCOCC)cc3)C[C@@H]3CCO[C@H](/C=C/C(C)(C)[C@]1(O)O2)O3 [Formula 19B.2],3.8,
CCCCCC/C=C/c1ccc([C@@H]2C[C@@H]3CCO[C@H](/C=C/C(C)(C)[C@]4(O)O[C@@H](C/C(=C\C(=O)OC)[C@@H]4OC(=O)CCCCCCC)C[C@H](CO)OC(=O)C[C@H](O)CCO2)O3)cc1 [Formula 19B.3],4.6,
COC(=O)/C=C1\C[C@H]2C[C@H]([C@@H](C)O)OC(=O)C[C@H](O)C[C@@H]3CCC[C@H](C[C@@H]4CCO[C@H](/C=C/C(C)(C)[C@](O)(O2)[C@H]1OC(C)=O)O4)O3 [Formula 702.2],,Ki (PKCδ-C1B): 232 ± 11 nM; P388 Assay ED50 (P388 cell line): 181 nM
CCCCCCC(=O)OC1C(=CC(=O)OC)CC2CC(C(C)O)OC(=O)CC(O)CC3CCCC(CC4CCOC(C=CC(C)(C)C1(O)O2)O4)O3 (stereo not shown) [Formula 702.3],,"Ki (PKCδ-C1B; competition with tritiated phorbol 12,13-dibutyrate): 35 nM; P388 Assay ED50 (P388 cell line): 38 nM"
"CCCC(=O)O[C@@H]1[C@@H](C)[C@@]2(O)[C@@H](C=C(CO)C[C@]3(O)C(=O)C(C)=C[C@@H]23)[C@@H]2C(C)(C)[C@]12OC(=O)CCC [Phorbol dibutyrate, phorbol 12,13-dibutyrate, reference compound]",,"Kd ([1]; under identical conditions to the PKC isozyme mix assay, read-out: Kd of [H^3]-PDBu): 1.55 nM"
